Values quoted from earlier work in patent US5962660A, “Sialyl Lewis X mimetics incorporating fucopeptides” (The Scripps Research Institute, priority 1997, dated 1999).
pIC50: −log10 of the molar value.

Tests used:
[1] = for lung injury / tissue accumulation of neutrophils: intravenous infusion of up to 200 μg, rats given intravenous cobra venom
[2] = because of glycosidase reactions
[3] = system: E-selectin

NeuAcα2→3Galβ1→4(Fucα1→3)GlcNAc [SLe^x]
effective intravenous concentration ([1]; calculated from the 200 μg used): less than 1 μM
lung injury [1]: dramatically reduced
tissue accumulation of neutrophils [1]: diminished
pIC50 ([1]; rats, read-out: IC50 value in vivo for protecting against lung injury): ~6.00
stability in the blood stream [2]: unstable
affinity for E-selectin in vitro [3]: relatively weak

NeuAcα2→3Galβ1→4(Fucα1→3)GlcNAcβ1,3Galβ- [pentamer]
lung injury [1]: dramatically reduced
tissue accumulation of neutrophils [1]: diminished
